Values of other authors, collected in patent US6562243B2 (priority 2001, dated 2003).

Tested on: Legionella

[Ag] [silver]
silver level that kills Legionella: 20 ppb
